{"source": "patent US20230346735A1", "about": "“Nutritional Composition Comprising Carnitine and Method for Treating or Preventing an Infection in a Mammal” (priority 2020, published 2023)", "tested_on": "ACE-2", "assay": "Human study, serum ELISA, ACE-2", "type": "in vivo", "experimental": "A human study was run with a total of 80 healthy male and female subjects ranging from 21 to 65 years of age, who were active (i.e. 30 minutes per day of moderate activity, 3 days per week) are randomized into two groups. […] Seventy-three subjects completed the trial and biomarker data were analyzed from the sera of the 73 completers. Sera were collected for analysis of C-Reactive Protein (CRP), ACE 1, ACE 2, TMPRSS 2, the Tumor Necrosis Factor alpha (TNF-alpha), and Furin at baseline in the beginning of the trial, at week 5 and 48 hr after an exercise challenge as described (Clinicaltrials.gov NCT04420377). The exercise challenge serves as surrogate to the inflammation stimulus.\nTo obtain human sera, venous blood was extracted by venipuncture of the antecubital vein using a 21-gauge syringe and collected into a 10 mL EDTA vacutainer tube (BD Vacutainer®, Becton, Dickinson and Company, Franklin Lakes, NJ) by a certified phlebotomist. […] Human ACE-1, ACE-2, TMPRSS2, Furin, CRP and TNF-alpha protein levels were assessed using commercially available ELISA kits, according the manufacturer recommendations, ACE-1 (R&D systems Inc., Minneapolis, MN, USA), ACE-2 (RayBiotech inc., Peachtree Corners, GA), TMPRSS2 (Novus Biologicals, Littleton, CO), CRP (R&D Systems Inc., Minneapolis, MN), TNF-alpha (Novus Biologicals, Littleton, CO), and Furin (Sigma Aldrich, St. Louis, MO). […]"}
{"smiles": "C[N+](C)(C)C[C@H](O)CC(=O)[O-]", "note": "[L-carnitine]", "values": [{"measurement": "ACE-2 serum levels", "setting": "2 g daily, 5 weeks, 48 hours after exercise challenge, versus placebo", "result": "significant decrease"}, {"measurement": "decrease in ACE-2", "setting": "group A, from baseline compared to Wk5, p=0.046", "result": 8, "unit": "%"}]}
